This note sets out measurements from paper PMC8658928, “Isolation of N-Ethyl-2-pyrrolidinone-Substituted Flavanols from White Tea Using Centrifugal Countercurrent Chromatography Off-Line ESI-MS Profiling and Semi-Preparative Liquid Chromatography” (Molecules, 2021).

For this assay, the target named is α-glucosidase. Description: pNPG hydrolysis assay, absorbance at […] nm, pH […]. It counts as biochemical.
Turning to `O=C(O[C@@H]1Cc2c(O)cc(O)cc2O[C@@H]1c1cc(O)c(O)c(O)c1)c1cc(O)c(O)c(O)c1` [EGCG], 129 µM corresponded to half-maximal inhibition (IC50). As for `CCN1C(=O)CC[C@@H]1c1c(O)cc(O)c2c1O[C@H](c1cc(O)c(O)c(O)c1)[C@H](OC(=O)c1cc(O)c(O)c(O)c1)C2` [R-EGCG-cThea], the 50% inhibitory concentration (IC50) (as a rule, the concentration at which inhibition is half-maximal) stood at 70.3 µM. The value for `CCN1C(=O)CC[C@H]1c1c(O)cc(O)c2c1O[C@H](c1cc(O)c(O)c(O)c1)[C@H](OC(=O)c1cc(O)c(O)c(O)c1)C2` [S-EGCG-cThea] was 162 µM.
